From the CheMixHub ionic liquid set

Test: xn = mol fraction of the nth substance listed

CC(=O)[O-].CC[NH+](CC)CC + O
298.15 K, 101 kPa
Details | viscosity [mPa·s]
x1 = 0.0288 | 6.32
x1 = 0.042 | 8.12
x1 = 0.0638 | 10.7
x1 = 0.0847 | 13.35
x1 = 0.1016 | 14.91
x1 = 0.1457 | 18.6
x1 = 0.2125 | 23.4
x1 = 0.2349 | 24.4
x1 = 0.2904 | 26.5
x1 = 0.3254 | 27.4
x1 = 0.367 | 27.8
x1 = 0.4174 | 28.2
x1 = 0.5162 | 27.6
x1 = 0.5579 | 26.8
x1 = 0.6055 | 26.1
x1 = 0.6604 | 25.3
x1 = 0.7243 | 24.2
x1 = 0.7996 | 22.9
x1 = 0.8899 | 22.7
x1 = 1 | 24.1

CCCCCC[NH2+]CCN.O=S(=O)([N-]S(=O)(=O)C(F)(F)F)C(F)(F)F + O
101.3 kPa
Details | electrical conductivity [S/m] | viscosity [mPa·s]
308.15 K, x1 = 0.5022 | 0.182 | 77.8
318.15 K, x1 = 0.5763 | 0.188 | 50.3
323.15 K, x1 = 0.401 | 0.589 | 21.2
328.15 K, x1 = 0.5022 | 0.42 | 29.1
328.15 K, x1 = 0.6828 | 0.233 | 45.5
338.15 K, x1 = 0.5022 | 0.6 | 19.7
343.15 K, x1 = 0.6828 | 0.428 | 24.2
343.15 K, x1 = 0.8154 | 0.321 | 25.9
348.15 K, x1 = 0.401 | 1.29 | 9
348.15 K, x1 = 0.5763 | 0.625 | 15
353.15 K, x1 = 0.5763 | 0.729 | 12.8

O=S(=O)([N-]S(=O)(=O)C(F)(F)F)C(F)(F)F.[Li+] + CC[n+]1ccn(C)c1.O=S(=O)([O-])C(F)(F)F
electrical conductivity [S/m], 101 kPa
Details | x1 = 0.007746 | x1 = 0.01537 | x2 = 0.9697 | x2 = 0.9746
288.15 K | 0.587 | 0.557 | – | 0.538
298.15 K | 0.844 | 0.823 | 0.778 | 0.785
333.15 K | 2.14 | 2.13 | 2.04 | 2.04

CCCCCCCCCCCC[n+]1ccn(C)c1.[Cl-] + O
298.15 K, 100 kPa, frequency 0.001 MHz
Details | electrical conductivity [S/m]
x1 = 7.207e-05 | 0.035
x1 = 9.009e-05 | 0.043
x1 = 0.0001261 | 0.059
x1 = 0.0001802 | 0.085
x1 = 0.0002162 | 0.102
x1 = 0.0002882 | 0.129
x1 = 0.0003242 | 0.137
x1 = 0.0004143 | 0.155
x1 = 0.0004503 | 0.163
x1 = 0.0004863 | 0.17
x1 = 0.0005223 | 0.177

OCCO + CCCC[n+]1ccn(C)c1.O=S(=O)([N-]S(=O)(=O)C(F)(F)F)C(F)(F)F
100 kPa
Details | viscosity [mPa·s]
293.15 K, x2 = 0.2002 | 34.4
293.15 K, x2 = 0.4015 | 41.6
298.15 K, x2 = 0.2002 | 27.2
308.15 K, x2 = 0.2997 | 18.6
308.15 K, x2 = 0.7003 | 21.8
313.15 K, x2 = 0.2997 | 15.6
318.15 K, x2 = 0.2997 | 13.3
318.15 K, x2 = 0.7003 | 15.6
323.15 K, x2 = 0.2997 | 11.5
323.15 K, x2 = 0.7993 | 14.8
323.15 K, x2 = 0.9 | 17
328.15 K, x2 = 0.4015 | 10.4
328.15 K, x2 = 0.6007 | 11.3
328.15 K, x2 = 0.9 | 14.7
333.15 K, x2 = 0.2002 | 8.11
333.15 K, x2 = 0.7993 | 11.3
338.15 K, x2 = 0.7993 | 10

O=C(O)c1cccnc1 + CCCC[n+]1ccn(C)c1.[Br-] + O
viscosity [mPa·s], 100 kPa
Details | 293.15 K | 298.15 K | 303.15 K | 308.15 K | 313.15 K | 318.15 K
x1 = 0.0002684, x2 = 0 | 1.015 | 0.903 | 0.807 | 0.734 | 0.666 | 0.61
x1 = 0.0002711, x2 = 0.0008999 | 1.035 | 0.92 | 0.824 | 0.754 | 0.677 | 0.62
x1 = 0.0002757, x2 = 0.001798 | 1.06 | 0.94 | 0.842 | 0.759 | 0.69 | 0.632
x1 = 0.0002802, x2 = 0.002695 | 1.071 | 1.002 | 0.906 | 0.796 | 0.75 | 0.681
x1 = 0.0005421, x2 = 0 | 1.018 | 0.905 | 0.809 | 0.737 | 0.669 | 0.614
x1 = 0.0005475, x2 = 0.0008997 | 1.039 | 0.923 | 0.827 | 0.756 | 0.678 | 0.621
x1 = 0.0005493, x2 = 0.001798 | 1.063 | 0.942 | 0.843 | 0.761 | 0.691 | 0.633
x1 = 0.0005547, x2 = 0.002694 | 1.074 | 1.004 | 0.908 | 0.797 | 0.751 | 0.682
x1 = 0.0008084, x2 = 0 | 1.021 | 0.908 | 0.812 | 0.742 | 0.673 | 0.617
x1 = 0.0008166, x2 = 0.0008994 | 1.042 | 0.925 | 0.829 | 0.758 | 0.68 | 0.622
x1 = 0.0008283, x2 = 0.001797 | 1.066 | 0.945 | 0.845 | 0.763 | 0.693 | 0.634
x1 = 0.0008364, x2 = 0.002693 | 1.077 | 1.007 | 0.91 | 0.799 | 0.753 | 0.683
x1 = 0.001084, x2 = 0 | 1.024 | 0.911 | 0.814 | 0.746 | 0.677 | 0.62
x1 = 0.001093, x2 = 0.0008992 | 1.044 | 0.927 | 0.83 | 0.759 | 0.681 | 0.624
x1 = 0.001104, x2 = 0.001797 | 1.069 | 0.947 | 0.848 | 0.765 | 0.694 | 0.635
x1 = 0.001114, x2 = 0.002693 | 1.08 | 1.009 | 0.912 | 0.801 | 0.754 | 0.684
x1 = 0.001351, x2 = 0 | 1.027 | 0.913 | 0.816 | 0.75 | 0.681 | 0.624
x1 = 0.001363, x2 = 0.000899 | 1.047 | 0.93 | 0.833 | 0.762 | 0.683 | 0.625
x1 = 0.001377, x2 = 0.001796 | 1.071 | 0.95 | 0.85 | 0.767 | 0.696 | 0.636
x1 = 0.00139, x2 = 0.002692 | 1.083 | 1.012 | 0.915 | 0.803 | 0.756 | 0.686
x1 = 0.001619, x2 = 0 | 1.03 | 0.916 | 0.819 | 0.754 | 0.685 | 0.628
x1 = 0.001635, x2 = 0.0008987 | 1.05 | 0.932 | 0.835 | 0.763 | 0.684 | 0.619
x1 = 0.001652, x2 = 0.001796 | 1.074 | 0.952 | 0.852 | 0.768 | 0.697 | 0.638
x1 = 0.001666, x2 = 0.002691 | 1.086 | 1.014 | 0.917 | 0.805 | 0.757 | 0.687
